From US6495331B1, “Regulation of cytokine production in a hematopoietic cell” (National Jewish Center for Immunology and Respiratory …, priority 1996, dated 2002) come the findings set out here.

Assay type in all cases: cell-based, mouse
One assay concerns p38 MAP kinase. Nature of the assay: p38 MAP kinase immunoprecipitation kinase assay (ATF-2 substrate) in OVA-stimulated sensitized MC/9 cells. Here is the method: MC/9 cells sensitized with OVA-IgE were incubated in the presence of PBS (O min) or 10 μg/ml OVA for 1, 5, 15, 30, or 60 min. To immunoprecipitate p38 kinase, 3×10^6 cells were lysed by vigorous mixing in 0.4 ml of extraction buffer (1% Triton X-100, 10 mM Tris-HCl (pH 7.4), 5 mM EDTA, 50 mM NaCl, 50 mM […], 0.1% bovine serum albumin (BSA), 20 μg/ml aprotinin, 1 mM PMSF, and 2 mM Na3VO4). The lysate was incubated with the rabbit anti-serum raised against the COOH-terminal peptide sequence of p38 (1:400 dilution) for 2 h at 4° C. Recombinant protein G sepharose 4 B was added to the lysate and incubated for an additional 1 h at 4° C. The immunoprecipitates were washed once with extraction buffer, twice with PAN buffer (10 mM piperazine-N, N′-bis (2-ethanesulfonic acid) (PIPES, pH 7.0), 100 mM NaCl, 20 μg/ml aprotinin). […] The kinase activity was quantified with a PhosphorImager (Molecular Dynamics, Sunnyvale, Calif.).
MC/9 cells sensitized with OVA-IgE (3×10^6) were preincubated with either 1-1000 nM wortmannin or a control (0.01% DMSO) for 15 min and stimulated for 5 min by addition of 10 μg/ml OVA. […] The data are expressed as the percentage of p38 activity detected in the presence of 10 μg/ml OVA and 0.01% DMSO (*, p<0.05).

The next assay has as its system human TNF-α promoter. Nature of the assay: TNF-α promoter luciferase reporter pTNF(-1311)Luc in MC/9 cells stimulated by FcεRI aggregation. The protocol:
The pXP1 plasmid containing full length of the human TNF-α promoter just upstream of the luciferase gene, designated pTNF(-1311)Luc, was provided by Dr. James S. Economou (Division of Surgical Oncology, UCLA School of Medicine, Los Angels, Calif.). pTNF(-1311)Luc was transfected into MC/9 by the DEAE-dextran method. 2×10^6 cells were washed once with 1×TBS (25 mM Tris, 137 mM NaCl, 5 mM KCl, 0.5 mM Na2HPO4, 0.49 MM MgCl2, 0.68 mM CaCl21 pH 7.5). Cells were suspended with 0.4 ml of 500 μg DEAE-dextran/4 μgDNA mixture and incubated at room temperature for 30 min. After washed with 1×TBS, cells were suspended with 10 ml of culture medium and plated on culture dish. […]
Luciferase activity was measured to measure TNF-α promoter activity. […] 30 μl of the lysate was mixed with the same volume of Luciferase Assay Substrate containing beetle luciferin as a substrate (Promega, Madison Wis.), and chemiluminescence was measured for 30 sec as relative light units by a luminometer (Monolight 2010, Analytical Luminescence Laboratory, San Diego, Calif.).
MC/9 cells transiently transfected by pTNF(-1311)Luc were passively sensitized with OVA-IgE, and incubated for an additional 15 h with 10 μg/ml OVA or PBS in the presence of 0.01% DMSO or 100 nM wortmannin. […] Luciferase activity in cell lysates was measured as relative light units (RLU) and standardized by control RLU (mean±S.D., N=4, p<0.01). […]
In general terms: A reporter such as luciferase makes a cellular process visible.

For assay [1], the system named is ERK2. Nature of the assay: ERK2 phosphorylation by anti-ERK2 immunoblot in MC/9 cells. The following applies: PD 098059, MC/9 cells. Here is the method: After different treatments, 1×10^6 cells were lysed in buffer (150 mM NaCl, 1% Nonidet P-40, 0.5% deoxycholic acid sodium salt, 0.1% SDS, 50 mM Tris (pH 7.6), 10 μg/ml aprotinin, […] leupeptin, 1 mM phenylmethylsulfonyl fluoride). Samples were electrophoresed on SDS-10% polyacrylamide gels and proteins were transferred to nitrocellulose membranes. Membranes were incubated overnight in blocking buffer containing 1% BSA at 4° C. The monoclonal anti-ERK2 antibody (200 μg/69 μl, Upstate Biotechnology) was added to the blocking buffer (1:1000), and blots were incubated for an additional 1 h at room temperature. The blots were washed in TBST (25 mM Tris (pH 8.0), 125 mM NaCl, 0.025% Tween 20), and specific reactive proteins were detected by an enhanced chemiluminescence method, employing a sheep anti-mouse Ig antibody linked to horseradish peroxidase (Amersham Corp.).
1×10^6 cells were lysed in buffer (150 mM NaCl, 1% NP40, 0.5% deoxycholic acid sodium salt, 0.1% SDS, 50 mM Tris (pH 7.6), 10 μg/ml aprotinin, […] leupeptin, 1 mM PMSF). […] The blots were washed in TBST (25 mM Tris, pH 8.0, […] NaCl, 0.025% Tween 20) and specific reactive proteins were detected by an enhanced chemiluminescence method, employing a sheep anti-mouse Ig antibody linked to horseradish peroxidase (Amersham, Arlington Heights, Ill.).

The subject of assay [2] is ERK2. Nature of the assay: ERK2 in vitro kinase assay (32P incorporation into myelin basic protein) in OVA-stimulated sensitized MC/9 cells.
Method: MC/9 cells sensitized with OVA-IgE (1×10^6/ml) were incubated with 0.1% DMSO (control and 0 nM) or 3-30 μM PD 098059 for 1 h and the reaction was stopped by centrifugation at 5 min after the stimulation. The cells were then incubated with 10 μg/ml OVA or PBS (control) for 5 min. Kinase activity of ERK2 was measured as ^32P incorporation into myelin basic protein (MBP).
In vitro kinase assay of ERK2 was carried out as described above with some minor modifications. 3×10^6 cells were lysed by vigorous mixing in 0.4 ml of lysis buffer (20 mM Tris-HCl (pH 8.0), 1% Triton X-100, 10% glycerol, 137 mM NaCl, 1.5 mM MgCl2, 1 mM EGTA, 50 mM NaF, 1 mM Na3VO4, 1 mM PMSF, 5 μg/ml leupeptin, and 10 μg/ml aprotinin). The lysate was incubated with anti-ERK2 antibody (2 μg/ml) for 2 hrs at 4° C. Recombinant protein G sepharose 4B was added to the lysate and incubated for an additional 1 hr at 4° C. The immune complexes were washed three times with lysis buffer, and once with kinase buffer (30 mM Tris-HCl (pH 8.0), 20 mM MgCl2, 2 mM MnCl2). For the in vitro kinase assay, the immune complex suspension was incubated with 9 μg myelin basic protein (MBP) and 10 μCi of [γ-^32P] ATP in kinase buffer in a final volume of 30 μl for 30 min at 30° C. […] The bands corresponding to MBP were cut out of the gel, and radioactivity was determined by liquid scintillation counting.
In a further assay the test system is TNF-α production. Nature of the assay: TNF-α production by OVA-stimulated sensitized MC/9 cells, ELISA. The following applies: then 10 μg/ml OVA 3 h.
The test system of the next assay is JNK. Nature of the assay: JNK activity (GST-c-Jun kinase assay) in OVA-stimulated OVA-IgE-sensitized MC/9 cells.

Method for JNK: MC/9 cells (5×10^6/ml) were cultured with 500 ng/ml anti-OVA IgE for 2 h. The cells were washed with medium three times and cultured with fresh medium for an additional 2 h. OVA dissolved in PBS or anti-IgE was added for the stimulation, and PBS was used as a control vehicle.
The activity of JNK was measured by monitoring the activity of a Glutathione S-transferase-c-Jun-(1-79) fusion protein. Cells (3×10^6) were lysed in a buffer (20 MM Tris-HCl, pH 7.6, 250 mM NaCl, 3 mM EDTA, 3 mM EGTA, 0.5% NP-40, 2 mM Na3VO4, 1 mM dithiothreitol (DTT), 1 mM phenylmethylsulfonyl fluoride (PMSF), 20 μg/ml aprotinin, 5 μg/ml leupeptin). The lysates were mixed with GST-c-Jun-Sepharose beads and rotated at 4° C. for 3 h. The beads were washed twice in lysis buffer and once in kinase assay buffer (20 mM Hepes, pH 7.5, 20 mM β-glycerophosphate, 10 mM MgCl2, 1 mM DTT, 50 mM Na3VO4, 10 mM p-nitrophenyl phosphate). After the final wash, 40 μl of a kinase assay buffer containing 10 μCi of γ-^32P-ATP (ICN Pharmaceuticals, Irvine, Calif.) were added per sample. […] The bands corresponding to GST-c-Jun were cut out of the gel, and radioactivity was determined by liquid scintillation counting. […]
Method for TNF-α production: An ELISA for TNF-α production was performed as follows. Purified rat anti-mouse TNF-α monoclonal antibody was diluted to 2 μg/ml in coating solution (0.1 M NaHCO3, pH 8.2) and 50 μg was added to wells of an ELISA plate (Dynatech Laboratories). […] After washing twice, standards (16 pg/ml −4 ng/ml recombinant mouse TNF-α) and samples were added at 100 μl per well and incubated overnight at 4° C. After washing four times, biotinylated rabbit anti-mouse TNF-α polyclonal antibody (1 μg/ml) was added to wells and incubated at room temperature for 45 min and wells were washed six times. […] ABTS (2,2′-Azino-bis(3-ethylbenzthiazoline-6-sulfonic acid) substrate (30 mg/ml 0.1 M citric acid, pH 4.35) containing 0.03% H2O2 was added at 100 μl per well and color reaction was allowed to develop at room temperature for 30 min. A plate was read at OD 410 nm and analyzed by Mycroplate Manager (Bio Rad, Hercules, Calif.).
MC/9 cells (1×10^6/ml) were incubated with 500 ng/ml mouse monoclonal IgE specific for OVA (OVA-IgE) for 2 h. […] After the incubation, the cell supernatant was harvested and TNF-α production was measured by ELISA.
The effect of wortmannin on TNF-α production in MC/9 cells was also examined. […] TNF-α in the medium was measured by ELISA.
MC/9 cells sensitized with OVA-IgE (1×10^6/ml) were incubated with 0.1% DMSO or 30 μM PD 098059 for 1 h. […] TNF-α in the medium was measured by ELISA.

Consider `COc1cccc(-c2cc(=O)c3ccccc3o2)c1N` [PD 098059], for which the “effect on p38 activation” value in the assay with p38 MAP kinase (PD 098059, data not shown) is recorded as “did not inhibit”. Also, the “effect on OVA-induced luciferase activity (TNF-α promoter)” value in the assay with human TNF-α promoter (30 μM PD 098059, 10 μg/ml OVA 15 h) was “enhanced OVA-induced luciferase activity”. In addition, the “effect on ERK2 phosphorylation induced by aggregation of FcεRI” value in the assay on ERK2 [1] is reported as “strongly inhibited”. Further, in the assay on ERK2 [2] (30 μM PD 098059, 1 h, then 10 μg/ml OVA 5 min), the “decrease in OVA-induced ERK2 activity” value stood at 65%. Further, the “effect on ERK2 activities” value in the assay on ERK2 [2] (10-30 μM PD 098059, MC/9 cells) is “significantly inhibited”. The “effect on TNF-α production” value in the assay with TNF-α production (30 μM PD 098059, 1 h) is reported as “did not affect TNF-α production”. Moreover, the “effect on JNK activation” value in the assay with JNK (PD 098059, data not shown) was “did not inhibit”.
`COC[C@H]1OC(=O)c2coc3c2[C@@]1(C)C1=C(C3=O)[C@@H]2CCC(=O)[C@@]2(C)C[C@H]1OC(C)=O` [wortmannin]: in the assay on p38 MAP kinase (100 nM-1 μM wortmannin, 15 min, then 10 μg/ml OVA 5 min), the “decrease in p38 kinase activities” value is 50-60%. Moreover, in the assay on human TNF-α promoter (100 nM wortmannin, 10 μg/ml OVA 15 h), the “decrease in OVA-induced luciferase activity (TNF-α promoter)” value came to 40%. In addition, in the assay with TNF-α production (100 nM wortmannin, 15 min), the “decrease in TNF-α production” value was determined as 77%. Further, in the assay on JNK (100 nM wortmannin, 15 min preincubation, 10 μg/ml OVA 10 min, MC/9 cells), the “JNK kinase activity, percentage of that observed in the absence of treatment” value turned out to be 8%.
